Results taken from ChEMBL document CHEMBL1201862, “PubChem BioAssay data set” (2004).
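Values below derive from 48-hour exposures of cells grown in 96-well plates, with endpoints linearly interpolated between the two concentrations bracketing the appropriate inhibition level. Here, GI50 denotes the concentration required for 50% inhibition of growth.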 Calls of active or inactive are those of the source. No stated cut-off is given here; in the data, active = GI50 up to about 1.1 µM and inactive = higher.

Tests used:
Assay in all cases: growth of human tumour cells (NCI), 48 h
DMS-273 = tested on: DMS-273
SF-295 = tested on: SF-295
HCC 2998 = tested on: HCC 2998
CAKI-1 = tested on: CAKI-1
SNB-78 = tested on: SNB-78
ACHN = tested on: ACHN
HT-29 = tested on: HT-29
DMS-114 = tested on: DMS-114
NCI-H226 = tested on: NCI-H226
RXF 393 = tested on: RXF 393
HCT-116 = tested on: HCT-116
HOP-92 = tested on: HOP-92
NCI-H23 = tested on: NCI-H23
TK-10 = tested on: TK-10
CCRF-CEM = tested on: CCRF-CEM
SNB-75 = tested on: SNB-75
KM12 = tested on: KM12
XF498 = tested on: XF498
HOP-62 = tested on: HOP-62
Malme-3M = tested on: Malme-3M
RPMI-8226 = tested on: RPMI-8226
DLD-1 = tested on: DLD-1
RXF 631 = tested on: RXF 631
A549 = tested on: A549
NCI-H460 = tested on: NCI-H460
OVCAR-4 = tested on: OVCAR-4
SF-268 = tested on: SF-268
SK-OV-3 = tested on: SK-OV-3
OVCAR-3 = tested on: OVCAR-3
UACC-257 = tested on: UACC-257
COLO 205 = tested on: COLO 205
UACC-62 = tested on: UACC-62
KM-20L2 = tested on: KM-20L2
IGROV-1 = tested on: IGROV-1
M19-MEL = tested on: M19-MEL
EKVX = tested on: EKVX
UO-31 = tested on: UO-31
LOX IMVI = tested on: LOX IMVI
SK-MEL-5 = tested on: SK-MEL-5
A498 = tested on: A498
SNB-19 = tested on: SNB-19
SW-620 = tested on: SW-620
HL-60 = tested on: HL-60
LXFL 529 = tested on: LXFL 529
SF-539 = tested on: SF-539
K562 = tested on: K562
U-251 = tested on: U-251
SN12C = tested on: SN12C
OVCAR-5 = tested on: OVCAR-5
HOP-18 = tested on: HOP-18
M14 = tested on: M14
786-0 = tested on: 786-0
SK-MEL-28 = tested on: SK-MEL-28
OVCAR-8 = tested on: OVCAR-8
NCI-H522 = tested on: NCI-H522
HCT-15 = tested on: HCT-15
SK-MEL-2 = tested on: SK-MEL-2
MOLT-4 = tested on: MOLT-4

CCOC(=O)c1cc2c3c(c(O)c(OC)c2s1)N(C(=O)c1cc2c4c(c(O)c(OC)c2s1)N(C(C)=O)CC4)CC3
GI50 (DMS-273): 61.8 µM (inactive) | GI50 (SF-295): 54.3 µM (inactive) | GI50 (HCC 2998): > 100 µM (inactive) | GI50 (CAKI-1): > 100 µM (inactive) | GI50 (SNB-78): > 100 µM (inactive) | GI50 (ACHN): 77.3 µM (inactive) | GI50 (HT-29): > 100 µM (inactive) | GI50 (DMS-114): > 100 µM (inactive) | GI50 (NCI-H226): 50.4 µM (inactive) | GI50 (RXF 393): 54.1 µM (inactive) | GI50 (HCT-116): > 100 µM (inactive) | GI50 (HOP-92): 29 µM (inactive) | GI50 (NCI-H23): > 100 µM (inactive) | GI50 (TK-10): > 100 µM (inactive) | GI50 (CCRF-CEM): > 100 µM (inactive) | GI50 (SNB-75): 23.4 µM (inactive) | GI50 (KM12): > 100 µM (inactive) | GI50 (XF498): 32.1 µM (inactive) | GI50 (HOP-62): 35.6 µM (inactive) | GI50 (Malme-3M): 77.8 µM (inactive) | GI50 (RPMI-8226): > 100 µM (inactive) | GI50 (DLD-1): > 100 µM (inactive) | GI50 (RXF 631): 9.08 µM (inactive) | GI50 (A549): > 100 µM (inactive) | GI50 (NCI-H460): > 100 µM (inactive) | GI50 (OVCAR-4): 71.6 µM (inactive) | GI50 (SF-268): > 100 µM (inactive) | GI50 (SK-OV-3): 22 µM (inactive) | GI50 (OVCAR-3): 24.4 µM (inactive) | GI50 (UACC-257): > 100 µM (inactive) | GI50 (COLO 205): > 100 µM (inactive) | GI50 (UACC-62): 98.6 µM (inactive) | GI50 (KM-20L2): > 100 µM (inactive) | GI50 (IGROV-1): > 100 µM (inactive) | GI50 (M19-MEL): > 100 µM (inactive) | GI50 (EKVX): > 100 µM (inactive) | GI50 (UO-31): 64.4 µM (inactive) | GI50 (LOX IMVI): > 100 µM (inactive) | GI50 (SK-MEL-5): 85.1 µM (inactive) | GI50 (A498): 31.2 µM (inactive) | GI50 (SNB-19): > 100 µM (inactive) | GI50 (SW-620): > 100 µM (inactive) | GI50 (HL-60): 28.2 µM (inactive) | GI50 (LXFL 529): 93.3 µM (inactive) | GI50 (SF-539): 38.5 µM (inactive) | GI50 (K562): > 100 µM (inactive) | GI50 (U-251): 63.8 µM (inactive) | GI50 (SN12C): > 100 µM (inactive) | GI50 (OVCAR-5): > 100 µM (inactive) | GI50 (HOP-18): > 100 µM (inactive) | GI50 (M14): 46.5 µM (inactive) | GI50 (786-0): 36.6 µM (inactive) | GI50 (SK-MEL-28): > 100 µM (inactive) | GI50 (OVCAR-8): 72.8 µM (inactive) | GI50 (NCI-H522): > 100 µM (inactive)

COC(=O)C1Cc2c(n(C)c3ccccc23)C(CCC(=O)O)N1Cc1ccccc1 (stereo not given)
GI50 (DMS-273): 31.6 µM (inactive) | GI50 (SF-295): 31 µM (inactive) | GI50 (HCC 2998): > 100 µM (inactive) | GI50 (CAKI-1): 37.2 µM (inactive) | GI50 (SNB-78): 32.8 µM (inactive) | GI50 (ACHN): 19.6 µM (inactive) | GI50 (HT-29): 36.1 µM (inactive) | GI50 (DMS-114): 26.7 µM (inactive) | GI50 (NCI-H226): 21.7 µM (inactive) | GI50 (RXF 393): 28.6 µM (inactive) | GI50 (HCT-116): 21.2 µM (inactive) | GI50 (HOP-92): 23.6 µM (inactive) | GI50 (NCI-H23): 26.4 µM (inactive) | GI50 (TK-10): 55.8 µM (inactive) | GI50 (CCRF-CEM): 25.4 µM (inactive) | GI50 (SNB-75): 32.5 µM (inactive) | GI50 (KM12): 28.4 µM (inactive) | GI50 (XF498): 28.1 µM (inactive) | GI50 (HOP-62): > 100 µM (inactive) | GI50 (Malme-3M): > 100 µM (inactive) | GI50 (RPMI-8226): 16.1 µM (inactive) | GI50 (DLD-1): > 100 µM (inactive) | GI50 (RXF 631): 36.9 µM (inactive) | GI50 (A549): 31 µM (inactive) | GI50 (NCI-H460): 23.6 µM (inactive) | GI50 (OVCAR-4): 33.7 µM (inactive) | GI50 (SF-268): 26.4 µM (inactive) | GI50 (HCT-15): 27.7 µM | GI50 (SK-OV-3): 36.5 µM (inactive) | GI50 (OVCAR-3): 21.1 µM (inactive) | GI50 (UACC-257): 43.2 µM (inactive) | GI50 (SK-MEL-2): > 100 µM (inactive) | GI50 (COLO 205): 27 µM (inactive) | GI50 (UACC-62): 26.6 µM (inactive) | GI50 (KM-20L2): 34.9 µM (inactive) | GI50 (IGROV-1): 40.6 µM (inactive) | GI50 (M19-MEL): 32.1 µM (inactive) | GI50 (EKVX): 46.1 µM (inactive) | GI50 (MOLT-4): 27.5 µM (inactive) | GI50 (UO-31): 21.2 µM (inactive) | GI50 (LOX IMVI): 37.8 µM (inactive) | GI50 (SK-MEL-5): 27.3 µM (inactive) | GI50 (A498): 15.2 µM (inactive) | GI50 (SNB-19): 33.2 µM (inactive) | GI50 (SW-620): 40.4 µM (inactive) | GI50 (HL-60): 34.4 µM (inactive) | GI50 (LXFL 529): 37 µM (inactive) | GI50 (SF-539): 22.4 µM (inactive) | GI50 (K562): 37 µM (inactive) | GI50 (U-251): 37.7 µM (inactive) | GI50 (SN12C): 38.5 µM (inactive) | GI50 (OVCAR-5): 79.3 µM (inactive) | GI50 (M14): 25.5 µM (inactive) | GI50 (786-0): > 100 µM (inactive) | GI50 (SK-MEL-28): 28.4 µM (inactive) | GI50 (OVCAR-8): 39.4 µM (inactive) | GI50 (NCI-H522): 22.7 µM (inactive)

CC(C)(C)C1=CC(=C(P(=O)(O)O)P(=O)(O)O)C=C(C(C)(C)C)C1=O
GI50 (DMS-273): > 50 µM (inactive) | GI50 (SF-295): > 50 µM (inactive) | GI50 (HCC 2998): > 50 µM (inactive) | GI50 (CAKI-1): > 50 µM (inactive) | GI50 (SNB-78): > 50 µM (inactive) | GI50 (ACHN): > 50 µM (inactive) | GI50 (HT-29): > 50 µM (inactive) | GI50 (DMS-114): > 50 µM (inactive) | GI50 (NCI-H226): > 50 µM (inactive) | GI50 (HCT-116): > 50 µM (inactive) | GI50 (HOP-92): > 50 µM (inactive) | GI50 (NCI-H23): > 50 µM (inactive) | GI50 (TK-10): > 50 µM (inactive) | GI50 (CCRF-CEM): > 50 µM (inactive) | GI50 (SNB-75): > 50 µM (inactive) | GI50 (KM12): > 50 µM (inactive) | GI50 (HOP-62): > 50 µM (inactive) | GI50 (Malme-3M): > 50 µM (inactive) | GI50 (RPMI-8226): > 50 µM (inactive) | GI50 (DLD-1): > 50 µM (inactive) | GI50 (RXF 631): > 50 µM (inactive) | GI50 (A549): > 50 µM (inactive) | GI50 (NCI-H460): > 50 µM (inactive) | GI50 (OVCAR-4): > 50 µM (inactive) | GI50 (SF-268): > 50 µM (inactive) | GI50 (HCT-15): > 50 µM | GI50 (SK-OV-3): > 50 µM (inactive) | GI50 (OVCAR-3): > 50 µM (inactive) | GI50 (UACC-257): > 50 µM (inactive) | GI50 (SK-MEL-2): > 50 µM (inactive) | GI50 (UACC-62): > 50 µM (inactive) | GI50 (KM-20L2): > 50 µM (inactive) | GI50 (IGROV-1): > 50 µM (inactive) | GI50 (M19-MEL): > 50 µM (inactive) | GI50 (EKVX): > 50 µM (inactive) | GI50 (MOLT-4): > 50 µM (inactive) | GI50 (UO-31): > 50 µM (inactive) | GI50 (LOX IMVI): > 50 µM (inactive) | GI50 (SK-MEL-5): > 50 µM (inactive) | GI50 (A498): > 50 µM (inactive) | GI50 (SNB-19): > 50 µM (inactive) | GI50 (SW-620): > 50 µM (inactive) | GI50 (HL-60): > 50 µM (inactive) | GI50 (LXFL 529): > 50 µM (inactive) | GI50 (SF-539): > 50 µM (inactive) | GI50 (K562): > 50 µM (inactive) | GI50 (OVCAR-5): > 50 µM (inactive) | GI50 (HOP-18): > 50 µM (inactive) | GI50 (M14): > 50 µM (inactive) | GI50 (786-0): > 50 µM (inactive) | GI50 (SK-MEL-28): > 50 µM (inactive) | GI50 (OVCAR-8): > 50 µM (inactive) | GI50 (NCI-H522): > 50 µM (inactive)
